Data published in ChEMBL document CHEMBL1629693, “Intracellular concentrations of posaconazole in different compartments of peripheral blood” (Antimicrob Agents Chemother, 2010).

Experiments:
[1] = Drug uptake in human PMNC assessed as increase in intracellular compound concentration by radiometric assay relative to control; format: ADME, cell-based
[2] = Ratio of intracellular to extracellular drug uptake in alveolar macrophages of New Zealand white rabbit infected with Mycobacterium bovis at 1 ug/ml in presence of 5% serum; format: ADME, cell-based, Oryctolagus cuniculus; settings: macrophage
[3] = Ratio of cellular uptake in alveolar macrophages to plasma of healthy human at 14 doses of […], twice daily; format: ADME, organism-based
[4] = Ratio of cellular uptake in alveolar macrophages to plasma of healthy human
[5] = Ratio of intracellular to extracellular drug uptake in alveolar macrophages of New Zealand white rabbit infected with Mycobacterium bovis at 1 ug/ml; format: ADME, cell-based, Oryctolagus cuniculus; settings: macrophage
[6] = Ratio of intracellular to extracellular drug uptake in RBC of New Zealand white rabbit infected with Mycobacterium bovis at 1 ug/ml; format: ADME, cell-based, Oryctolagus cuniculus; settings: erythrocyte
[7] = Ratio of intracellular to extracellular drug uptake in alveolar macrophages of New Zealand white rabbit infected with Mycobacterium bovis at 1 ug/ml in presence of 100% serum; format: ADME, cell-based, Oryctolagus cuniculus; settings: macrophage
PBMC [8] = assay: Cellular uptake in PBMC of patient with hematological malignancies at 200 mg administered 3 to 4 times a day measured by liquid chromatography-tandem mass spectroscopy; settings: human, in vivo
[9] = Ratio of intracellular to extracellular cellular uptake in PMNC of patient with hematological malignancies at 200 mg administered 3 to 4 times a day measured by liquid chromatography-tandem mass spectroscopy; settings: human, in vivo
[10] = Cellular uptake in PMNC of patient with hematological malignancies at 200 mg administered 3 to 4 times a day measured by liquid chromatography-tandem mass spectroscopy; settings: human, in vivo
PBMC [11] = assay: Ratio of intracellular to extracellular cellular uptake in PBMC of patient with hematological malignancies at 200 mg administered 3 to 4 times a day measured by liquid chromatography-tandem mass spectroscopy; settings: human, in vivo
[12] = Cellular uptake in RBC of patient with hematological malignancies at 200 mg administered 3 to 4 times a day measured by liquid chromatography-tandem mass spectroscopy; settings: human, in vivo
[13] = Ratio of intracellular to extracellular cellular uptake in RBC of patient with hematological malignancies at 200 mg administered 3 to 4 times a day measured by liquid chromatography-tandem mass spectroscopy; settings: human, in vivo
Plasma = assay: Drug uptake in plasma of patient with hematological malignancies at 200 mg administered 3 to 4 times a day measured by liquid chromatography-tandem mass spectroscopy; settings: human, in vivo

OC(Cn1cncn1)(Cn1cncn1)c1ccc(F)cc1F [FLUCONAZOLE]
fold change (FC) [1]: 2.2

CCC(C)n1ncn(-c2ccc(N3CCN(c4ccc(OCC5COC(Cn6cncn6)(c6ccc(Cl)cc6Cl)O5)cc4)CC3)cc2)c1=O (stereo not given) [ITRACONAZOLE]
Ratio [2]: 18
Kp [3]: 44.3
Kp [4]: 27.3
Ratio [5]: 87.9
Ratio [6]: 90.4
Ratio [7]: 3

CC[C@@H]([C@H](C)O)n1ncn(-c2ccc(N3CCN(c4ccc(OC[C@@H]5CO[C@@](Cn6cncn6)(c6ccc(F)cc6F)C5)cc4)CC3)cc2)c1=O [POSACONAZOLE]
Drug uptake (PBMC [8]): 12764 ng/mL
Ratio [9]: 7.66
Drug uptake [10]: 4031 ng/mL
Ratio (PBMC [11]): 22.5
Drug uptake [12]: 50.8 ng/mL
Ratio [13]: 0.09
Drug uptake (Plasma): 603.2 ng/mL

C[C@@H](c1ncncc1F)[C@](O)(Cn1cncn1)c1ccc(F)cc1F [VORICONAZOLE]
fold change (FC) [1]: 8.5
